Reference: patent publication US10548896B2, “Treatment of relapsed and/or refractory solid tumors and non-Hodgkin's lymphomas” (CELGENE QUANTICEL RESEARCH, INC., priority 2016, dated 2020)
Read-outs that look alike come from different tables or passages of the source.

How the values were obtained:
[1] = tested on: LU1480 SCLC patient derived xenograft; experiment: Efficacy in LU1480 HuPrime SCLC PDX model; format: in vivo, female BALB/c nude mice
[2] = 4-week oral gavage pivotal toxicity study with 4-week recovery in dogs (incl. ECG, toxicokinetics); format: in vivo, Beagle dogs
Method: The QTc interval was calculated using the Fridericia method.

[3] = target: MDR1 (human P-gp)-MDCK cells (Homo sapiens (Human), UniProt P08183); experiment: Permeability in MDR1-MDCK cells; format: in vitro ADME; details: B→A direction
[4] = 4-week toxicity study with 4-week recovery in mice (incl. toxicokinetics); details: QDx5/week schedule
[5] = Hemodynamic and ECG parameters in anesthetized guinea pigs; format: in vivo, male Dunkin Hartley guinea pigs
Description: Animals were monitored throughout the experiment.

[6] = tested on: GA0087 gastric NEC patient-derived xenograft; format: in vivo; details: 1.5 and 5 mg/kg orally QD
[7] = tested on: ST18 and FREM2 gene expression in MKL-1 tumors; experiment: In vivo xenograft dose-response of PD biomarker genes, MKL-1 tumors; set-up: species or system female NSG mice; details: 1, 2.5, or 5 mg/kg PO BID x4.5, tumors 4 hours after last dose
Description: (§1) Female NSG mice bearing palpable hMCC MKL-1 and MS-1 tumors were randomized into four groups of three mice each. […] The fourth group was orally administered vehicle as a control on the BID schedule. Four hours after the last dosing, tumors were collected into RNAlater and stored frozen.
(§2) Total RNA was eluted in RNase-free water and analyzed by qRT-PCR.

[8] = Predicted human pharmacokinetics (allometric scaling)
[9] = tested on: recombinant human CYP enzymes; experiment: CYP reaction phenotyping with recombinant human CYP enzymes; format: in vitro ADME
Description: The role of non-CYP enzymes in the metabolism of Compound A is yet to be ascertained.

NCI-H1417 SCLC xenograft [10] = experiment: Efficacy in NCI-H1417 SCLC xenograft model; format: in vivo, female athymic nude mice
[11] = Exploratory toxicity study in dogs; details: 0.5 mg/kg/day 5 days on/2 days off, Day 12
[12] = Metabolism in cryopreserved primary hepatocytes; format: in vitro ADME, mouse, rat, dog, monkey, human
[13] = tested on: LU2514 SCLC patient derived xenograft; experiment: Efficacy in LU2514 HuPrime SCLC PDX model; format: in vivo, female BALB/c nude mice
Method: Tumor growth inhibition analysis was performed on Day 28 post treatment, the last day of dosing.

[14] = tested on: ST18 and FREM2 gene expression in MS-1 tumors; experiment: In vivo xenograft dose-response of PD biomarker genes, MS-1 tumors; set-up: species or system female NSG mice; details: 1, 2.5, or 5 mg/kg PO BID x4.5, tumors 4 hours after last dose
Description: as §1, §2

CYP2C9 = CYP2C9 (Homo sapiens (Human), UniProt P11712); experiment: CYP inhibition in pooled human liver microsomes, CYP2C9; format: in vitro ADME; details: up to 50 μM
[15] = tested on: LXFS 573 SCLC patient derived xenograft; experiment: Efficacy in LXFS 573 SCLC PDX model; format: in vivo, female NMRI-Foxn1nu mice; details: 5 to 10 mg/kg oral
LNCaP cells = experiment: LNCaP cell proliferation with DHT and irradiation; format: cell-based, human; details: 100 nM Compound A with 10 nM DHT and 2Gy irradiation, 220 hours
Method: LNCaP cells are androgen-sensitive human prostate adenocarcinoma cells. […] The proliferation of the LNCap cells was monitored for 220 hours.

[16] = Exploratory toxicity study in mice; format: in vivo, CD-1 mice; details: for reduction in neutrophil counts versus concurrent controls: 60 mg/kg/dose QOD
Description: Additional animals were included for TK evaluation.

CYP2D6 = CYP2D6 (Homo sapiens (Human), UniProt P10635); experiment: CYP inhibition in pooled human liver microsomes, CYP2D6; format: in vitro ADME; details: up to 50 μM
[17] = tested on: LU2527 lung NEC patient-derived xenograft; format: in vivo; details: 1.5 and 5 mg/kg orally QD
[18] = tested on: gene expression in MKL-1 cells; experiment: Modulation of gene expression by RNA-seq, MKL-1 cells; format: cell-based, human; details: 10 and 100 nM, 3 days
Method: (§3) Libraries were sequenced on an Illumina NextSeq® 500 System (Illumina, San Diego, Calif.) using 75 base paired-end RNA sequencing. Sequenced reads were mapped to the hg19 human genome build and differential expression was determined by analysis of variance across all replicates relative to the vehicle control.
(§4) Sequenced reads were mapped to the hg19 human genome build using the Spliced Transcripts Alignment to a Reference (STAR) software tool (©Alexander Dobin, 2009-2016) and transcript counts were normalized using the Empirical Analysis of Digital Gene Expression Data in R (edgeR) and Differential gene expression analysis based on the negative binomial distribution (DESeq2) software tools ((Bioconductor, 2003-2017). Differential expression was determined by analysis of variance across all replicates relative to the vehicle control.

[19] = tested on: LXFS 573 SCLC patient-derived xenograft; details: for SS (number of study survivors): Day 133, N=8
[20] = tested on: gene expression in MS-1 cells; experiment: Modulation of gene expression by RNA-seq, MS-1 cells; format: cell-based, human; details: 10 and 100 nM, 3 days
Method: as §3, §4

[21] = Excretion in bile duct cannulated rats; format: in vivo; details: IV dosing, 24-hour period
[22] = Pharmacokinetics after IV and oral dose, rats; format: in vivo, Sprague Dawley rats; details: IV dosing, rats (greater than liver blood flow)
NCI-H1417 SCLC xenograft [23] = details: etoposide monotherapy 24 mg/kg SC QDx3

CYP2C9, sequence (P11712 whole entry): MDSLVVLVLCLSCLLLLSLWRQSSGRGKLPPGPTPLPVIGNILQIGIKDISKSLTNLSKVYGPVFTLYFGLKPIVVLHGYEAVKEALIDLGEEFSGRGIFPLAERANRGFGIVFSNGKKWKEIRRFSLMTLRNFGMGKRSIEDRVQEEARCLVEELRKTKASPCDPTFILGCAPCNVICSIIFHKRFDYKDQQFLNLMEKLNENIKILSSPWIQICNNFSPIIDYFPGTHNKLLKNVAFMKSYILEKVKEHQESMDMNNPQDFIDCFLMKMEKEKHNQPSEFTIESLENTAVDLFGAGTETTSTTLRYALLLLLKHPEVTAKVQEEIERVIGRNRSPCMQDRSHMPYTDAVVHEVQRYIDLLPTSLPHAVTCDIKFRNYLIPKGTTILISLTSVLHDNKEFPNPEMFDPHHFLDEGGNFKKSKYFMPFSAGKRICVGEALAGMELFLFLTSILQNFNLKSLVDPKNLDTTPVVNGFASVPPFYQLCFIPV
MDR1 (human P-gp)-MDCK cells, sequence (P08183 whole entry): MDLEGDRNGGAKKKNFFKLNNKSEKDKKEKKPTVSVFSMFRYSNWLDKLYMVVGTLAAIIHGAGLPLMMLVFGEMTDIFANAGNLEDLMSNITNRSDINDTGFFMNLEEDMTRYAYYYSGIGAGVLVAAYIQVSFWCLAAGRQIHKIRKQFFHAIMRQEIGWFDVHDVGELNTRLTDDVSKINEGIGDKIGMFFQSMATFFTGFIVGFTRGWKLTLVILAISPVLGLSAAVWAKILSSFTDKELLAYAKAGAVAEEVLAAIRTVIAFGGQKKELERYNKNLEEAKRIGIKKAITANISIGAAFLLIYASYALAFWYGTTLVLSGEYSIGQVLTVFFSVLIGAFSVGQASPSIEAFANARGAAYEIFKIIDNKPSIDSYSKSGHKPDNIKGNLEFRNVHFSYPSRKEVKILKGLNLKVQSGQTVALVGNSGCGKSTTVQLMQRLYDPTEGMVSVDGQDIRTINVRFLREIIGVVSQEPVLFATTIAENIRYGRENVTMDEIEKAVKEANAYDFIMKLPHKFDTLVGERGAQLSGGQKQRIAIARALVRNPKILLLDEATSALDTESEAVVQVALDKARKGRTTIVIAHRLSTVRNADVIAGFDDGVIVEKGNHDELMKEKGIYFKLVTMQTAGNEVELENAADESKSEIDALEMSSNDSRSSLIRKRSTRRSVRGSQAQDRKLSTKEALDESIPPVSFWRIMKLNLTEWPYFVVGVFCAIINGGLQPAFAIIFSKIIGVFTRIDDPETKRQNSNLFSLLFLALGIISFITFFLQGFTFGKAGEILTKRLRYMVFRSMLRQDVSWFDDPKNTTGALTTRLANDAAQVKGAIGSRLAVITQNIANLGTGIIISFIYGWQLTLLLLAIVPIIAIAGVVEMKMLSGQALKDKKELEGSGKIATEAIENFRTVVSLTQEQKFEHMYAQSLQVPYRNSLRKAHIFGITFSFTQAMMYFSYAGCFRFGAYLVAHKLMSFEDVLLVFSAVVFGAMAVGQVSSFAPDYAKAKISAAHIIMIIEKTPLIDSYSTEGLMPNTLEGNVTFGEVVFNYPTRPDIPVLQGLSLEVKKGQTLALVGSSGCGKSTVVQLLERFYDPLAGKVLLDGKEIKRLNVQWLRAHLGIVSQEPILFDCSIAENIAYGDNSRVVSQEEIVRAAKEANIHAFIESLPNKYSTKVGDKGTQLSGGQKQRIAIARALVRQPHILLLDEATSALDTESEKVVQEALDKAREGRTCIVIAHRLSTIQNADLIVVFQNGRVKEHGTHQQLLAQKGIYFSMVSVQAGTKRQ
CYP2D6, sequence (P10635 whole entry): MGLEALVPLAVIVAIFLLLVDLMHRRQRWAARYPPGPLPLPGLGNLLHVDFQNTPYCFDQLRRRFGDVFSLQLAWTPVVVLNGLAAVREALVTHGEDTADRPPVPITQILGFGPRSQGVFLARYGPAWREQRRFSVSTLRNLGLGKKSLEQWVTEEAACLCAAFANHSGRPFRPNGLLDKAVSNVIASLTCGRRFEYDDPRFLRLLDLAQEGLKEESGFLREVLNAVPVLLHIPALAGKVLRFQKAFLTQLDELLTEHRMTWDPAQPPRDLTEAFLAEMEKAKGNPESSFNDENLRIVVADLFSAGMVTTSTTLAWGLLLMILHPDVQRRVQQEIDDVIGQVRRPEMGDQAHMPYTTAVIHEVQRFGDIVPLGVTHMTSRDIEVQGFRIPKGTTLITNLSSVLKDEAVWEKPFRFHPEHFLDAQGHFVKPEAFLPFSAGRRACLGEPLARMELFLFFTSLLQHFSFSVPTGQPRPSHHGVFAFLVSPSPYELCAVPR

**Q.** What does the source list for `COc1ccc(-c2c(-c3ccc(C#N)c(F)c3)nc(N3CCC(N)CC3)n(C)c2=O)cc1F` [Compound A, 4-[2-(4-amino-piperidin-1-yl)-5-(3-fluoro-4-methoxy-phenyl)-1-methyl-6-oxo-1,6-dihydro-pyrimidin-4-yl]-2-fluoro-benzonitrile]?
**A.** Median Tumor Volumes (mm^3) Day 1 ([1]; 5 mg base/kg PO QDx21): 89.5 mm^3; Median Tumor Volumes (mm^3) Day 1 ([1]; 10 mg base/kg PO QDx21): 87.1 mm^3; animals with moribund euthanasia ([2]; 0.375 to 1.5 mg base/kg/dose QW, study Days 13 to 23): 11 animals; NOEL for CV and respiratory changes ([2]; QW): 0.75 mg base/kg/dose; permeability [3]: 16.5 ×10⁻⁶ cm/s; NOAEL [4]: 5 mg base/kg/dose; STD10 [4]: > 45 mg base/kg/dose; maximum increase of QTcB interval versus time-matched vehicle ([5]; 10 mg base/kg IV): approximately 9%; maximum increase of QTcB interval versus time-matched vehicle ([5]; 15 mg base/kg IV): ~13%; maximum increase of QTcB interval versus time-matched vehicle ([5]; 20 mg base/kg IV): ~16%; maximum suppression of HR versus vehicle ([5]; 20 mg base/kg IV, 9 minutes into 10-minute infusion): 19%; effect on MAP or its components ([5]; 5 to 20 mg base/kg IV versus time-matched vehicle): No notable effect; tolerability [6]: acceptably tolerated; change in ST18 and FREM2 gene expression [7]: ≥ 2 fold; predicted clearance [8]: 9.4 mL/min/kg; enzyme responsible for oxidative metabolism [9]: CYP3A4 appears to be predominantly responsible; Median Tumor Volumes (mm^3) Day 0 (NCI-H1417 SCLC xenograft [10]; 2.5 mg base/kg PO QDx65): 109.2 mm^3; mean body weight gain by end of study (NCI-H1417 SCLC xenograft [10]; 2.5 mg base/kg PO QDx65): 1%; Median Tumor Volumes (mm^3) Day 0 (NCI-H1417 SCLC xenograft [10]; 5 mg base/kg PO QDx65): 108.2 mm^3; mean body weight gain by end of study (NCI-H1417 SCLC xenograft [10]; 5 mg base/kg PO QDx65): 7.5%; body weight loss of female sacrificed moribund [11]: 10.8%; metabolic stability [12]: greater in rat and dog followed by human and monkeys while being least stable in mouse hepatocytes; Median Tumor Volumes (mm^3) Day 1 ([13]; 5 mg base/kg PO QDx28): 173.2 mm^3; Median Tumor Volumes (mm^3) Day 1 ([13]; 10 mg base/kg PO QDx28): 173.7 mm^3; mean body weight losses ([13]; both studies with LU2514 model): < 10%; change in ST18 and FREM2 gene expression [14]: ≥ 2 fold; direct inhibitory effect on CYP2C9 (CYP2C9): little to no direct inhibitory effect; mean body weight losses [15]: ≤ 3%; LNCaP cell proliferation (LNCaP cells): significantly inhibits LNCaP cell proliferation; increase in platelets on Day 8 ([16]; 10 mg/kg/day 5 days on/2 days off, after 2-day dosing holiday): > 2 fold; reduction in neutrophil counts versus concurrent controls ([16]; females): 66%; reduction in neutrophil counts versus concurrent controls ([16]; males): 83%; greatest reduction in neutrophil counts versus concurrent controls and pre-study values ([16]; 5 days on/2 days off schedule): approximately 90%; direct inhibitory effect on CYP2D6 (CYP2D6): little to no direct inhibitory effect; tolerability [17]: acceptably tolerated; ST18 and FREM2 gene expression changes (upregulated) [18]: at least 2 fold; SS (number of study survivors) ([19]; Compound A at 5 mg/kg/day PO): 7; MTV of study survivors on Day 133 ([19]; Compound A monotherapy 5 mg/kg PO daily): 1064 mm3; study survivors on Day 133 ([19]; Compound A monotherapy 5 mg/kg PO daily, n=8): seven; ST18 and FREM2 gene expression changes (upregulated) [20]: at least 2 fold; dose excreted intact (urine plus bile) [21]: 26.3 % of the dose; dose excreted intact in urine [21]: 8.5 % of dose; systemic clearance [22]: high

**Q.** For `COc1cc([C@@H]2c3cc4c(cc3[C@@H](O[C@@H]3O[C@@H]5CO[C@@H](C)O[C@H]5[C@H](O)[C@H]3O)[C@H]3COC(=O)[C@H]23)OCO4)cc(OC)c1O` [Etoposide, etoposide], which “% TGD” value (NCI-H1417 SCLC xenograft [23]) is on record?
**A.** 92%

**Q.** And the TGD (NCI-H1417 SCLC xenograft [23])?
**A.** 24 days

**Q.** What about the “median TTE” value (NCI-H1417 SCLC xenograft [23]) of the same compound?
**A.** 50 days

**Q.** And the “median TTE” value ([19]; Etoposide at 24 mg/kg/day SC days 1-3 + Vehicle PO days 4-133)?
**A.** 63 days

**Q.** What about the “SS (number of study survivors)” value ([19]; Etoposide at 24 mg/kg/day SC days 1-3 + Vehicle) of the same compound?
**A.** 0
